Values of other authors, collected in patent publication US8198303B2, “Methods of use and compositions for the diagnosis and treatment of infectious diseases” (Sequella, Inc., priority 2002, dated 2012).

Tested on: M. tuberculosis
Details: background statement on ethambutol

CC[C@@H](CO)NCCN[C@@H](CC)CO [ethambutol, Ethambutol]
Minimum Inhibition Concentration (MIC): about 5 μg/ml
